# Test results: ChEMBL document CHEMBL4043168, “The design and SAR of a novel series of 2-aminopyridine based LRRK2 inhibitors” (Bioorg Med Chem Lett, 2017)
# How the values were obtained:
# [1] = target: Tyrosine-protein kinase ABL2 (Homo sapiens) (UniProt P42684); experiment: Inhibition of ARG labeling at […] (LMTGDTYTAHAGAKFPIK) in human PBMC at 1 uM
# [2] = target: Calcium/calmodulin-dependent protein kinase type II subunit alpha (Homo sapiens) (UniProt Q9UQM7); experiment: Inhibition of CaMK2a labeling at conserved Lys2 (DLKPENLLLASK) in human PBMC at 1 uM
# [3] = target: Calcium/calmodulin-dependent protein kinase type II subunit beta (Homo sapiens) (UniProt Q13554); experiment: Inhibition of CaMK2b labeling at conserved Lys2 (DLKPENLLLASK) in human PBMC at 1 uM
# [4] = target: G protein-coupled receptor kinase 6 (Homo sapiens) (UniProt P43250); experiment: Inhibition of GPRK6 conserved Lys2 (DLKPENILLDDHGHIR) in human PBMC at 1 uM
# [5] = target: T1, Inhibitor of nuclear factor kappa-B kinase subunit epsilon (Homo sapiens) (UniProt Q14164); experiment: Inhibition of IKKe conserved Lys1 (SGELVAVKVFNTTSYLRPR) in human PBMC at 1 uM
# T1 sequence (whole entry): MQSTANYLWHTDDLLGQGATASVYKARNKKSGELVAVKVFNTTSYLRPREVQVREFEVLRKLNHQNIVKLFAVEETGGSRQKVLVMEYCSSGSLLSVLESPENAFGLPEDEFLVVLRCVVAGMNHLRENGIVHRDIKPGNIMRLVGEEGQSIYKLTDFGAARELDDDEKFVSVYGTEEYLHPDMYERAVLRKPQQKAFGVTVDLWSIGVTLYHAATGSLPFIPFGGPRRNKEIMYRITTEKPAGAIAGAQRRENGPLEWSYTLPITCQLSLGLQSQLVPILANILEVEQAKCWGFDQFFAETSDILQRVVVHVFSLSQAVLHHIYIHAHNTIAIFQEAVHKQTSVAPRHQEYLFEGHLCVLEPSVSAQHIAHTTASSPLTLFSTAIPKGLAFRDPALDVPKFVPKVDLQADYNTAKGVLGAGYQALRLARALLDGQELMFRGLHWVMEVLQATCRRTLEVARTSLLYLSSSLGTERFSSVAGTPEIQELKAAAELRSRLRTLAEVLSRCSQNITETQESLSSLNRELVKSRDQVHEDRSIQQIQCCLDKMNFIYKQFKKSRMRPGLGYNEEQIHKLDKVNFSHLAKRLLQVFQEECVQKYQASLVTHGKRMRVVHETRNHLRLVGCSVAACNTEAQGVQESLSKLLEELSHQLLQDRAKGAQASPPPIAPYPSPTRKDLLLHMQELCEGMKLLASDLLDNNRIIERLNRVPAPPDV
# [6] = target: Serine/threonine-protein kinase TBK1 (Homo sapiens) (UniProt Q9UHD2); experiment: Inhibition of TBK1 conserved Lys2 (DIKPGNIMR) in human PBMC at 1 uM
# Chain of Serine/threonine-protein kinase TBK1 (Homo sapiens) (Q9UHD2 whole entry): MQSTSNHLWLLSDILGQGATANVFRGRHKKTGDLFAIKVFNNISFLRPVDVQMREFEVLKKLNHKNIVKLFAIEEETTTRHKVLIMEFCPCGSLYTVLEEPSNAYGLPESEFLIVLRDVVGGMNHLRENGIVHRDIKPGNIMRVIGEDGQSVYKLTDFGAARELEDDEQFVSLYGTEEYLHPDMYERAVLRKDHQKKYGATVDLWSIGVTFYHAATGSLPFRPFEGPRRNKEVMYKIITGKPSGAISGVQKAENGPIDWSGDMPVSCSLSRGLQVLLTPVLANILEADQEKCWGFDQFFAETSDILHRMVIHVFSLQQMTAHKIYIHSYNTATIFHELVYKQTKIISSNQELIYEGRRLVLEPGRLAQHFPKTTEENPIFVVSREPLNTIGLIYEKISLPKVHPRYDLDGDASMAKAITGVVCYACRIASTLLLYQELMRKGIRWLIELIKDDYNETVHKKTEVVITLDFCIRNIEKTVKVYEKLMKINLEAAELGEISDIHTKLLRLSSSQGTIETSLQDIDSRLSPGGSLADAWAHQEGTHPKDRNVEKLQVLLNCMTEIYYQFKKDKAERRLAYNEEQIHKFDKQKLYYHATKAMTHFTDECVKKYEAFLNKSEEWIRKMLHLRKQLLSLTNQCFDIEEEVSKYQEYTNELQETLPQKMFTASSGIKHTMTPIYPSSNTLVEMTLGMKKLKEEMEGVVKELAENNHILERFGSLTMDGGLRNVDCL
# [7] = target: T2, Serine/threonine-protein kinase LATS1 (Homo sapiens) (UniProt O95835); experiment: Inhibition of LATS1 conserved Lys2 (DIKPDNILIDR) in human PBMC at 1 uM
# T2 sequence (whole entry): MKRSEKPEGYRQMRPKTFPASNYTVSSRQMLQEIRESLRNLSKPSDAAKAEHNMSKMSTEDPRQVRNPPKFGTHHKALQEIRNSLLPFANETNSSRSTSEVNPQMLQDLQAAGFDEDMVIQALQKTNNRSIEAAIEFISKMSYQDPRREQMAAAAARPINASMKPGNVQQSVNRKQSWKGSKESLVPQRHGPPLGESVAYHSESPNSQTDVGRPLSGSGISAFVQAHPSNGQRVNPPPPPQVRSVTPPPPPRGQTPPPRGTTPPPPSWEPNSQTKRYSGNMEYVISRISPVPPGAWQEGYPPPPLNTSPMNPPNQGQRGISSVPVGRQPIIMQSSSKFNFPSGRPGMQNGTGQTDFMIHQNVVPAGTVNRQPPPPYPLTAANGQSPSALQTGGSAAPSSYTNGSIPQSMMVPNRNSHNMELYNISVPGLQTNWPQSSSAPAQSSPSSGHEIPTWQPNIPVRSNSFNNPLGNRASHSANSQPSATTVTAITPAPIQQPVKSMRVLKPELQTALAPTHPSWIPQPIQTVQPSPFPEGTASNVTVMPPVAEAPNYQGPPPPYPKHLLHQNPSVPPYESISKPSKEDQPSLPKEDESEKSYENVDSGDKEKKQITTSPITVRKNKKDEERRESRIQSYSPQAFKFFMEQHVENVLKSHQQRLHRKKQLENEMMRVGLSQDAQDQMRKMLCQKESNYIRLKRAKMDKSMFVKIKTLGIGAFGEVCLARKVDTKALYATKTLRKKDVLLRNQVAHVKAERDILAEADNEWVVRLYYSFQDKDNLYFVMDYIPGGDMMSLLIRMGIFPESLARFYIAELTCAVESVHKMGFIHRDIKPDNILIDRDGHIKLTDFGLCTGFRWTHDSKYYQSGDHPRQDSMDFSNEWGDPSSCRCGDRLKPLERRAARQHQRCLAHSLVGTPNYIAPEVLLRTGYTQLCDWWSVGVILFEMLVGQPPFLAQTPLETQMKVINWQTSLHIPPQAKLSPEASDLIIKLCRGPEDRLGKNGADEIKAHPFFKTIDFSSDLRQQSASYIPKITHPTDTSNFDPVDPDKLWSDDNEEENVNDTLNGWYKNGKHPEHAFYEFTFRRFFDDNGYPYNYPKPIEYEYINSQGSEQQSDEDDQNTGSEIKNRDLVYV
# [8] = target: Serine/threonine-protein kinase Nek6 (Homo sapiens) (UniProt Q9HC98); experiment: Inhibition of NEK6 conserved Lys2 (DIKPANVFITATGVVK) in human PBMC at 1 uM
# Chain of Serine/threonine-protein kinase Nek6 (Homo sapiens) (Q9HC98 whole entry): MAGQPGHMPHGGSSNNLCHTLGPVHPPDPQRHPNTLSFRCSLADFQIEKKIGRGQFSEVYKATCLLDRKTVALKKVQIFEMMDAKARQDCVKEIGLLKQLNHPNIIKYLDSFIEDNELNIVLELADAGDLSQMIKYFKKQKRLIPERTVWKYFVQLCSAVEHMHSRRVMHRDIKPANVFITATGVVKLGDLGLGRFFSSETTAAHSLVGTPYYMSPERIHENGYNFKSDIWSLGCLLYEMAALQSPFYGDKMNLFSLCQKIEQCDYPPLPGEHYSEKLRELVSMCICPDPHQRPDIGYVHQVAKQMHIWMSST
# [9] = target: Serine/threonine-protein kinase Nek9 (Homo sapiens) (UniProt Q8TD19); experiment: Inhibition of NEK9 conserved Lys2 (DIKTLNIFLTK) in human PBMC at 1 uM
# Chain of Serine/threonine-protein kinase Nek9 (Homo sapiens) (Q8TD19 whole entry): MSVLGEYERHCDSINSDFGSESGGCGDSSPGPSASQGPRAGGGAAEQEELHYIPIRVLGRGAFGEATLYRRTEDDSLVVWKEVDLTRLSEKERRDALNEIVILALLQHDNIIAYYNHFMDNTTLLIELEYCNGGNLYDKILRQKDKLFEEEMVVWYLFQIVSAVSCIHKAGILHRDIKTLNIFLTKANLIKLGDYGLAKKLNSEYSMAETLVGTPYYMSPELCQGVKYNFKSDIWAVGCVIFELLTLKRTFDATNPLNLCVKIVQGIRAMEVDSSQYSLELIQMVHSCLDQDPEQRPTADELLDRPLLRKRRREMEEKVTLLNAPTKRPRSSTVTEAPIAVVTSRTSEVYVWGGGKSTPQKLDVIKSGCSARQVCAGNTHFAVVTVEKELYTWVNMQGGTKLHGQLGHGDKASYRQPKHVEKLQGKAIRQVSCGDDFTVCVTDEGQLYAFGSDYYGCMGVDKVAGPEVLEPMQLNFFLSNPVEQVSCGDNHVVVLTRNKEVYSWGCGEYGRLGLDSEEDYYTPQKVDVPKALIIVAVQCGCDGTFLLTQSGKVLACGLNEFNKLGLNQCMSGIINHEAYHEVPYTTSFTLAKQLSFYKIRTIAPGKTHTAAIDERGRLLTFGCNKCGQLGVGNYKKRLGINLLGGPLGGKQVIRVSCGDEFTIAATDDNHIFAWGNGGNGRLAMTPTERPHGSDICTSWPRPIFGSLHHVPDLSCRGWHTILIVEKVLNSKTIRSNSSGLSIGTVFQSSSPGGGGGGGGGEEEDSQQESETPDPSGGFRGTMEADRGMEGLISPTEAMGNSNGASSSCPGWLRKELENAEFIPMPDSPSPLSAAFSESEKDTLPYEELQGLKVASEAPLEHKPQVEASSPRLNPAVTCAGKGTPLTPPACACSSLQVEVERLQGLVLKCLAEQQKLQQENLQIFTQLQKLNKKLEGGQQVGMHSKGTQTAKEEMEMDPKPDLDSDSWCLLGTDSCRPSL
# [10] = target: Serine/threonine-protein kinase WNK2 (Homo sapiens) (UniProt Q9Y3S1); experiment: Inhibition of Wnk2 ATP binding site (GSFKTVYK) in human PBMC at 1 uM
# [11] = target: RAC-alpha serine/threonine-protein kinase (Homo sapiens) (UniProt P31749); experiment: Inhibition of AKT1 labeling at ATP binding site (GTFGKVILVK) in human PBMC at 0.1 uM
# [12] = target: Mitogen-activated protein kinase kinase kinase kinase 5 (Homo sapiens) (UniProt Q9Y4K4); experiment: Inhibition of KHS1 conserved Lys1 (NVHTGELAAVKIIK) in human PBMC at 0.1 uM
# Chain of Mitogen-activated protein kinase kinase kinase kinase 5 (Homo sapiens) (Q9Y4K4 whole entry, looked up): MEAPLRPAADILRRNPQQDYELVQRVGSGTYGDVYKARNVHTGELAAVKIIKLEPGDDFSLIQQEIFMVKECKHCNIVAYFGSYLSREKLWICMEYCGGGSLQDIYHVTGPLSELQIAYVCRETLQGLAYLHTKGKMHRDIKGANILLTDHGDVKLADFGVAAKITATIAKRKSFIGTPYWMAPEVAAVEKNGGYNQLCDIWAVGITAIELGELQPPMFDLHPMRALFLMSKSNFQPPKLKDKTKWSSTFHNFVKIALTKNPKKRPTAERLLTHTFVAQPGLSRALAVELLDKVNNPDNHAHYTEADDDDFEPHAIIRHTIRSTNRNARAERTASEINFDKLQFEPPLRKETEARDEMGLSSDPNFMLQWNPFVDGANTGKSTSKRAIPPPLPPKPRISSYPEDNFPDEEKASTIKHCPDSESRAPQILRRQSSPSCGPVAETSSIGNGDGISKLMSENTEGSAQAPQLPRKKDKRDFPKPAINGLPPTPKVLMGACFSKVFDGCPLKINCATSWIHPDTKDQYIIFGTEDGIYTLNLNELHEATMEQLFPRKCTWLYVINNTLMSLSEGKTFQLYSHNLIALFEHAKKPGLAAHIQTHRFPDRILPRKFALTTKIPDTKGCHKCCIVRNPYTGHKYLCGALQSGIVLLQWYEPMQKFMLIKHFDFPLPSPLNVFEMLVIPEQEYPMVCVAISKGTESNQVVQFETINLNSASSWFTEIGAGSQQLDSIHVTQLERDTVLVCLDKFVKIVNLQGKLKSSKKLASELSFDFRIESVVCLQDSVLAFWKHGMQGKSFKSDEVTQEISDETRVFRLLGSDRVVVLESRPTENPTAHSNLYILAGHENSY
# [13] = target: Mitogen-activated protein kinase kinase kinase 2 (Homo sapiens) (UniProt Q9Y2U5); experiment: Inhibition of MAP3K2 conserved Lys2 (DIKGANILR) in human PBMC at 0.1 uM
# Chain of Mitogen-activated protein kinase kinase kinase 2 (Homo sapiens) (Q9Y2U5 whole entry, the tested form may be a part): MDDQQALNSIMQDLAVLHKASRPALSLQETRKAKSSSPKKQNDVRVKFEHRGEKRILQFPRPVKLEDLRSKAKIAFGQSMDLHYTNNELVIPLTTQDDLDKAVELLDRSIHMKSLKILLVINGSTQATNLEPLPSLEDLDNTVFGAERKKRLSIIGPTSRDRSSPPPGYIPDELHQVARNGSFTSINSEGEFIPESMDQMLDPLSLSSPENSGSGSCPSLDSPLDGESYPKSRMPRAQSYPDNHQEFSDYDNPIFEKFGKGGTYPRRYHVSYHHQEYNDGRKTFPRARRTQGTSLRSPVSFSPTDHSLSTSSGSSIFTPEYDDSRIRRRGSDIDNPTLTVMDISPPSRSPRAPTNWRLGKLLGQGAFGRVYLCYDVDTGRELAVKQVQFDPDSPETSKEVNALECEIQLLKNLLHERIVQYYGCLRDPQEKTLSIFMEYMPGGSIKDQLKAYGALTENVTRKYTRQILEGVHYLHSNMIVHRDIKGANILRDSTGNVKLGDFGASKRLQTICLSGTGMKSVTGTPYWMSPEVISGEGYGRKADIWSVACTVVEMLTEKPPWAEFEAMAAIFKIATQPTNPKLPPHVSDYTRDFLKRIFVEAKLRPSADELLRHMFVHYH
# [14] = target: Ribosomal protein S6 kinase alpha-5 (Homo sapiens) (UniProt O75582); experiment: Inhibition of MSK1 domain1 conserved Lys2 (DIKLENILLDSNGHVVLTDFGLSK) in human PBMC at 0.1 uM
# Chain of Tyrosine-protein kinase ABL2 (Homo sapiens) (P42684 whole entry): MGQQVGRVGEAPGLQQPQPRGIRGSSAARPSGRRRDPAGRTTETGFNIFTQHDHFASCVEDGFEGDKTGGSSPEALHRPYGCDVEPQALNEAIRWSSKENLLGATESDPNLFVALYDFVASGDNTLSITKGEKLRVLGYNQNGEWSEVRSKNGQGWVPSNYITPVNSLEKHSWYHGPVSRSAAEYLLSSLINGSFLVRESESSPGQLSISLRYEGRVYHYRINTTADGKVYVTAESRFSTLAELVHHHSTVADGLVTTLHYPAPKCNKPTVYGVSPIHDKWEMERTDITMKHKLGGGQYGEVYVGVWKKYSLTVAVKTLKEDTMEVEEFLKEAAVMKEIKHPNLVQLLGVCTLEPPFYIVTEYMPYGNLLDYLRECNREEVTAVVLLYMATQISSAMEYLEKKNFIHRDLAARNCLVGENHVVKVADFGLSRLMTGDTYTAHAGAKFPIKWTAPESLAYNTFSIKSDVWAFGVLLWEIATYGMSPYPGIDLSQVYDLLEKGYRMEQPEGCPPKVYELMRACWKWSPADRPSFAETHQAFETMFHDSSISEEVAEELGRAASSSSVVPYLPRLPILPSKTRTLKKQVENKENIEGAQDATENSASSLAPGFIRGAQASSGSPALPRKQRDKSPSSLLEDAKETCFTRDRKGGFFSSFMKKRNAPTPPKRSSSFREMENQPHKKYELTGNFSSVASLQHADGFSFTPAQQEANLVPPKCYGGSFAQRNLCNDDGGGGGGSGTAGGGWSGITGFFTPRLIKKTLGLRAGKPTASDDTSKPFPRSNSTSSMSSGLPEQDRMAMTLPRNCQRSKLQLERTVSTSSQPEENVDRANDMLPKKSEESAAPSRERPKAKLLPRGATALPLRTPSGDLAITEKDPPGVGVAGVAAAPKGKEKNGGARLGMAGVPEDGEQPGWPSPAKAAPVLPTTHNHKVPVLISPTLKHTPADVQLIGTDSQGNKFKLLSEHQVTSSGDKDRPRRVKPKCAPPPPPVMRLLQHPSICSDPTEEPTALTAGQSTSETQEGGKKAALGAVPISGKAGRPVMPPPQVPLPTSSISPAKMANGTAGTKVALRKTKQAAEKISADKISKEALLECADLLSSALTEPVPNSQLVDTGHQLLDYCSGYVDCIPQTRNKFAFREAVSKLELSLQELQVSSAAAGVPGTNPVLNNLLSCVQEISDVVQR
compound,measurement,setting,value
CC(C)n1cc(-c2cc(-c3ccc(CN4CCOCC4)cc3)cnc2N)nn1,inhibition,[1],34.8%
same,inhibition,[2],-0.4%
same,inhibition,[3],-0.4%
same,inhibition,[4],-10%
same,inhibition,[5],5.5%
same,inhibition,[6],11%
same,inhibition,[7],30.9%
same,inhibition,[8],-9.6%
same,inhibition,[9],25.5%
same,inhibition,[10],14.2%
same,inhibition,[11],21%
same,inhibition,[12],14.7%
same,inhibition,[13],23.2%
same,inhibition,[14],33.6%
